{
  "source": "paper PMC10964925",
  "about": "(European journal of medicinal chemistry, 2024)",
  "key": {"[1]": {"target": "FimHFL (full length FimH) (Escherichia coli, UniProt P08191)", "sequence (P08191 22-300, other chains not shown)": "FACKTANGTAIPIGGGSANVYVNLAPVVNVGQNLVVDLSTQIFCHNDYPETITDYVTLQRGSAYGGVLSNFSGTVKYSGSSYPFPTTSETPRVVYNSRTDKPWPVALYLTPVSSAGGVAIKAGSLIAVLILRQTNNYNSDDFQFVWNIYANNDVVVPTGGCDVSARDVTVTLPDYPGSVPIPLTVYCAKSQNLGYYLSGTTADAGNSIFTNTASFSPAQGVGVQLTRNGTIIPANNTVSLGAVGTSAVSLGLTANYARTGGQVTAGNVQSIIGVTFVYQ", "test": "competitive fluorescence polarization assay", "type": "binding"}, "[2]": {"test": "ligand solubility in assay buffer", "type": "physicochemical", "conditions": "for solubility: assay buffer with 5% or 10% DMSO; for highest achievable ligand concentration: assay buffer, final DMSO concentration 10%"}, "[3]": {"target": "T1, FimHLD (isolated lectin domain of FimH) (Escherichia coli, UniProt P08191)", "T1 sequence (P08191 22-179)": "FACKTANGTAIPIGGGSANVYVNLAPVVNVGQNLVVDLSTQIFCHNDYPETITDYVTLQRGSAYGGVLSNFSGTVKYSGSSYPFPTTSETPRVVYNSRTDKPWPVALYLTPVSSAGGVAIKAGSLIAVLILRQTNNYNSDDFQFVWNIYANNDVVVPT", "test": "competitive fluorescence polarization assay", "type": "binding", "conditions": "for factor of affinity improvement from 1: aglycone optimization"}, "[4]": {"target": "FimHLD (Escherichia coli, UniProt P08191)", "sequence (P08191 22-179)": "as above", "test": "isothermal titration calorimetry", "type": "binding", "conditions": "ITC KD versus FPA KD"}, "[5]": {"target": "T1, FimHLD (isolated lectin domain of FimH)", "conditions": "read-out: KD FimHLD; competitive FPA; mannosides; ref [18] and [19]; cited from earlier work"}},
  "data": [
    {"smiles": "N#Cc1ccc(-c2ccc(CO[C@H]3CO[C@H](CO)[C@@H](O)[C@H](O)[C@@H]3O)cc2)cc1", "note": "[7a, 2-O-(4-[4-cyanophenyl]benzyl)-1,6-anhydro-D-glycero-D-galactitol]", "values": [
      {"measurement": "increase in binding affinity to FimHFL", "setting": "[1]; para-cyano group on outer aromatic ring versus unsubstituted 7c", "result": "approximately 2 fold"},
      {"measurement": "solubility", "setting": "[2]", "result": "insufficient solubility"}
    ]},
    {"smiles": "N#Cc1ccc(-c2ccc(O[C@H]3CO[C@H](CO)[C@@H](O)[C@H](O)[C@@H]3O)c(Cl)c2)cc1", "note": "[8a, 2-O-[4-(4’-cyanophenyl)-2-chlorophenyl]-1,6-anhydro-D-glycero-D-galactitol]", "values": [
      {"measurement": "factor of affinity improvement compared to 6", "setting": "[3]; FPA, ortho-chloro modification", "result": 2.6},
      {"measurement": "factor of affinity gain by ortho-chloro modification", "setting": "[1]; FimHFL, FPA, versus 6", "result": 6},
      {"measurement": "solubility", "setting": "[2]", "result": "low solubility"},
      {"measurement": "highest achievable ligand concentration", "setting": "[2]", "result": "≤ 500", "unit": "µM"}
    ]},
    {"smiles": "OC[C@H]1OC[C@H](Oc2ccc(-c3ccccc3)cc2Cl)[C@@H](O)[C@@H](O)[C@@H]1O", "note": "[8c, 2-O-[4-phenyl-2-chlorophenyl]-1,6-anhydro-D-glycero-D-galactitol]", "values": [
      {"measurement": "factor of affinity improvement from 1", "setting": "[3]; FPA", "result": 32},
      {"measurement": "solubility", "setting": "[2]", "result": "low solubility"},
      {"measurement": "highest achievable ligand concentration", "setting": "[2]", "result": "≤ 500", "unit": "µM"}
    ]},
    {"smiles": "N#Cc1ccc(-c2ccc(CO[C@H]3CO[C@H](CO)[C@@H](O)[C@H](O)[C@@H]3O)c(Cl)c2)cc1", "note": "[9a, 2-O-(2-chloro-4-[4-cyanophenyl]benzyl)-1,6-anhydro-D-glycero-D-galactitol]", "values": [
      {"measurement": "factor of affinity improvement from 1", "setting": "[3]; FPA", "result": 1.5}
    ]},
    {"smiles": "OC[C@H]1OC[C@H](OCc2ccccc2)[C@@H](O)[C@@H](O)[C@@H]1O", "note": "[compound 4, 2-O-benzyl-1,6-anhydro-D-glycero-D-galactitol]", "values": [
      {"measurement": "factor of loss in binding affinity compared to phenylpropyl analog 5", "setting": "[3]; FPA", "result": 10}
    ]},
    {"smiles": "N#Cc1ccc(-c2ccc(O[C@H]3CO[C@H](CO)[C@@H](O)[C@H](O)[C@@H]3O)cc2)cc1", "note": "[compound 6, 2-O-(4-[4-cyanophenyl]phenyl)-1,6-anhydro-D-glycero-D-galactitol]", "values": [
      {"measurement": "factor of affinity increase compared to 7a", "setting": "[3]; FPA", "result": 6},
      {"measurement": "ITC binding affinity lower than recorded in the FPA assay", "setting": "[4]", "result": "approx. 3 fold"},
      {"measurement": "solubility", "setting": "[2]", "result": "low solubility"},
      {"measurement": "highest achievable ligand concentration", "setting": "[2]", "result": "≤ 500", "unit": "µM"}
    ]},
    {"smiles": "N#Cc1ccc(-c2ccc(O[C@H]3O[C@H](CO)[C@@H](O)[C@H](O)[C@@H]3O)cc2)cc1", "note": "[compound 27]", "values": [
      {"measurement": "Kd", "setting": "[5]", "result": 2, "unit": "nM"}
    ]},
    {"smiles": "NC(=O)c1ccc(-c2ccc(O[C@H]3O[C@H](CO)[C@@H](O)[C@H](O)[C@@H]3O)cc2)cc1", "note": "[compound 28]", "values": [
      {"measurement": "Kd", "setting": "[5]", "result": 2.8, "unit": "nM"}
    ]},
    {"smiles": "N#Cc1ccc(-c2ccc(O[C@H]3O[C@H](CO)[C@@H](O)[C@H](O)[C@@H]3O)c(Cl)c2)cc1", "note": "[compound 30, reference compound]", "values": [
      {"measurement": "factor of affinity improvement comparing 2 to 30", "setting": "[3]; mannoside ligands, from literature KD values", "result": 56.6}
    ]}
  ]
}
